Consider 11 molecules from PubChem BioAssay (NCI).

“And” between values parts separate entries of the source, which are not always exact repeats. Identical values can stand only once.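 A five-concentration, 48-hour dose response in 96-well plates underlies each endpoint, interpolated linearly between surrounding concentrations. GI50: concentration for 50% inhibition of growth. TGI: concentration producing complete growth inhibition.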

Test systems include CAKI-1 renal; IGROV1 ovarian; K-562 leukemia; NCI-H23 lung; SK-MEL-2 melanoma; U251 CNS; UO-31 renal; UACC-257 melanoma; HL-60(TB) leukemia.
Test in all cases: NCI anticancer screen, dose series, 48 h

Take `O=c1c2cccnc2ncn1CCN1CCCCC1`: the TGI with CAKI-1 renal, in the experiment with IGROV1 ovarian, in the experiment on K-562 leukemia, in the experiment on NCI-H23 lung, with SK-MEL-2 melanoma and with U251 CNS was more than 100 µM throughout. Further, in the experiment with UO-31 renal, the TGI is more than 100 µM.
Regarding `CN(C)CC1CCC/C1=N/OC(=O)c1ccccc1` (stereo not given), the TGI in the experiment on CAKI-1 renal, with IGROV1 ovarian, with K-562 leukemia, with NCI-H23 lung, in the experiment on SK-MEL-2 melanoma and in the experiment with U251 CNS was more than 100 µM throughout. Also, the TGI in the experiment with UACC-257 melanoma and in the experiment with UO-31 renal was more than 100 µM in each case.
Take `CC(=O)OCCOCNC(=S)N/N=C/c1ccc([N+](=O)[O-])o1`: the TGI in the experiment on HL-60(TB) leukemia was 39.2 µM; in the experiment with IGROV1 ovarian it was more than 100 µM; in the experiment with K-562 leukemia, more than 100 µM; with NCI-H23 lung it was more than 100 µM; in the experiment on SK-MEL-2 melanoma, more than 100 µM; with U251 CNS it was more than 100 µM. For the same molecule, the TGI in the experiment with UACC-257 melanoma and with UO-31 renal was more than 100 µM each time.
For `COCCOCOC(CCCCO)c1cc(C)c(O[Si](C)(C)C(C)(C)C)c(C)c1` (stereo not given), the TGI with HL-60(TB) leukemia was 6.02 µM; in the experiment with IGROV1 ovarian it was 26.7 µM; with K-562 leukemia, 16.3 µM; in the experiment with NCI-H23 lung, 18.7 µM; with SK-MEL-2 melanoma it was 21.9 µM; in the experiment on U251 CNS, 23.6 µM. Besides, the TGI amounted to 15.7 µM with UACC-257 melanoma and 17.2 µM with UO-31 renal.
For the molecule `CNC(=O)NCCCC(NC(C)=O)C(=O)NCc1ccccc1` (stereo not given), the TGI with CAKI-1 renal, with IGROV1 ovarian, in the experiment with K-562 leukemia, in the experiment on NCI-H23 lung, in the experiment with SK-MEL-2 melanoma and in the experiment with U251 CNS was more than 100 µM throughout. Besides, the TGI with UACC-257 melanoma and in the experiment with UO-31 renal was more than 100 µM throughout.
Consider `Cc1ccc(S(=O)(=O)N2CCC2c2ccccc2)cc1` (stereo not given), for which the TGI was 40.6 µM in the experiment on HL-60(TB) leukemia; more than 100 µM in the experiment on IGROV1 ovarian; more than 100 µM with K-562 leukemia; more than 100 µM in the experiment with NCI-H23 lung; more than 100 µM in the experiment with SK-MEL-2 melanoma; more than 100 µM with U251 CNS. For the same molecule, the TGI in the experiment on UACC-257 melanoma and in the experiment on UO-31 renal was more than 100 µM throughout.
Turning to `O=C(Nc1nc(=S)[nH][nH]1)C(=O)C(C(=O)c1ccc2ccccc2c1)C1OC(=O)c2ccccc21` (stereo not given), the TGI in the experiment on CAKI-1 renal was more than 100 µM; with IGROV1 ovarian, 53.7 µM; in the experiment on K-562 leukemia, 82.9 µM; in the experiment with NCI-H23 lung, 79.9 µM; in the experiment on SK-MEL-2 melanoma, 53.2 µM; in the experiment with U251 CNS, more than 100 µM. Further, the TGI in the experiment with UACC-257 melanoma is 76.5 µM; in the experiment on UO-31 renal, 30.5 µM.
With `Clc1ccc2cccc3c2c1C1OC3c2ccccc21` (stereo not given), the TGI in the experiment on HL-60(TB) leukemia, in the experiment with IGROV1 ovarian, in the experiment on K-562 leukemia, with NCI-H23 lung, in the experiment on SK-MEL-2 melanoma and in the experiment with U251 CNS was more than 100 µM in each case. Also, the TGI in the experiment on UACC-257 melanoma and in the experiment on UO-31 renal was more than 100 µM in each case.
With `Cc1[cH-]c(=O)n(-c2ccccc2)n1.[Au+].[Au].c1ccc([PH+](c2ccccc2)c2ccccc2)cc1.c1ccc([PH+](c2ccccc2)c2ccccc2)cc1`, the GI50 with HL-60(TB) leukemia was 15.2 µM; in the experiment with IGROV1 ovarian it was 13.6 µM; in the experiment on K-562 leukemia, 34.7 µM; in the experiment on NCI-H23 lung it was 9.75 µM; in the experiment with SK-MEL-2 melanoma it was 4.64 µM and 8.64 µM; in the experiment with U251 CNS it was 4.97 µM and 13.1 µM. Besides, the GI50 in the experiment on UACC-257 melanoma was 25.4 µM; in the experiment on UO-31 renal, 11.6 µM. Further, the TGI in the experiment with HL-60(TB) leukemia is 41.1 µM; with IGROV1 ovarian, 31.7 µM; in the experiment on K-562 leukemia, more than 100 µM; in the experiment on NCI-H23 lung, 46.1 µM; in the experiment on SK-MEL-2 melanoma, 23.5 µM; in the experiment on U251 CNS it was 27.3 µM. Also, the values for the TGI in the experiment with UACC-257 melanoma and with UO-31 renal were 91.3 µM and more than 100 µM, respectively.
Turning to `COc1c(CC(C)=O)ccc2c1C(=O)c1ccc(C=O)c(OC(C)=O)c1C2=O`, the TGI is 47 µM in the experiment on CAKI-1 renal; 22.4 µM in the experiment on HL-60(TB) leukemia; 44.2 µM in the experiment with IGROV1 ovarian; more than 100 µM in the experiment with K-562 leukemia; 30.3 µM in the experiment on SK-MEL-2 melanoma; 36.8 µM in the experiment with U251 CNS. Also, the TGI is 28.3 µM in the experiment on UACC-257 melanoma and 41.4 µM with UO-31 renal.
For the molecule `CCOC(=O)C1Sc2ccccc2N=C1C` (stereo not given), the TGI in the experiment on HL-60(TB) leukemia, in the experiment on IGROV1 ovarian, in the experiment with K-562 leukemia, in the experiment with NCI-H23 lung, with SK-MEL-2 melanoma and in the experiment with U251 CNS was more than 100 µM each time. For the same molecule, the TGI with UACC-257 melanoma and in the experiment on UO-31 renal was more than 100 µM each time.
